Assay results as given in publication PMC10610214 (Pharmaceuticals, 2023).
Entries after “also recorded” stand apart in the source; their conditions may differ. Where two headings read alike, the source gives them in different places.

Key:
[1] = biological target: Aβ1-42 (Homo sapiens, UniProt P05067); experiment: Self-induced Aβ1-42 aggregation, thioflavin T fluorescence; type: biochemical; parameters: final concentrations of 20 μM of Aβ1-42 and 100 μM of test compound; purchased Beyotime Institute of Biotechnology; conditions: 100 μM inhibitor; ThT; 48 h; read-out: Inhibition of Self-Induced Aβ Aggregation (%)
Aβ1-42, sequence (P05067 672-713 limits assumed): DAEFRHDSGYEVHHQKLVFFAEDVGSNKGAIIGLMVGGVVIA
Method: The inhibitory effect of compounds on Aβ42 was determined by Thioflavin T (ThT) fluorescence assay. In short, the dilution of Aβ42 solution (Beyotime Biotechnology, Hang Zhou, China) and test compounds was carried out with phosphate buffer (50 mM, pH 7.4) to obtain final concentrations of 20 μM of Aβ1-42 and 100 μM of test compound, such as curcumin (20 μM). The mixture was incubated in 96-well plates at room temperature for 48 h in the dark. When the incubation was complete, the samples were diluted to 200 µL (final volume) with glycine–NaOH buffer (50 mM, pH 8.0) containing 5 μM ThT.

[2] = in vitro; type: in vitro ADME, SD rats; conditions: pH 7.4
Method: The incubation was terminated at different time points by adding 0.5 mL of ice-cold CH3CN. A parallel incubation was performed in the absence of a NADPH-regenerating system with microsomes as the negative control, and the reactions were terminated after the corresponding time incubation. After centrifugation with 12,500 rpm at 4 °C for 10 min, the supernatant was directly analyzed by the HPLC UV systems (Agilent HPLC 1200 instrument). Three independent experiments were performed in triplicate.

[3] = system: COX-2; experiment: COX-2 expression in LPS-stimulated BV2 cells (Western blot); type: cell-based; conditions: 1, 2, 4 μM
Method: BV2 cells were seeded into a 6-well plate at a density of 3.0 × 10^5 cells per well. After incubation overnight, the old medium was discarded. Then, the cells were pretreated with various concentrations (1, 2, and 4 μM) of 4h for 1 h and then co-incubated with LPS (1 μg/mL) for 24 h. After incubation was completed, the cells were washed twice with PBS, and 300 μL of cell lysis buffer (RIRA lysis buffer, phosphatase inhibitor, protease inhibitor, and PMSF) was added to each well. The cells were then incubated on ice for 30 min and centrifuged at 12,000 rpm at 4 °C for 30 min to collect the supernatant. The protein content in the supernatant was detected using the BCA protein detection kit (Beyotime, Shanghai, China). Total proteins were separated by 10% SDS-PAGE and then transferred from the gel to a PVDF membrane (Sigma-Aldrich, Shanghai, China). The membranes were blocked in TBST solution containing 5% skimmed milk for 2 h. Next, the membranes were washed three times (TBST) and incubated with primary antibody dilution (Cell Signaling Technologies, Boston, MA, USA) overnight at 4 °C. Then, they were washed another three times (TBST), incubated with the secondary antibody at room temperature for 90 min, and then washed three times with TBST. The blots were visualized by a chemiluminescence imager (Tanon 5200, Shanghai, China).

[4] = system: SY5Y cells; experiment: Cytotoxicity in SY5Y cells (MTT); type: cell-based
[5] = biological target: T1, AChE (Electrophorus electricus, UniProt O42275); type: biochemical; conditions: for AChE activity after dilution (reversibility): control 100
T1 construct: AChE (from electric eel); purchased Sigma Chemical Company (St. Louis, MO, USA)
T1 sequence (O42275 24-633): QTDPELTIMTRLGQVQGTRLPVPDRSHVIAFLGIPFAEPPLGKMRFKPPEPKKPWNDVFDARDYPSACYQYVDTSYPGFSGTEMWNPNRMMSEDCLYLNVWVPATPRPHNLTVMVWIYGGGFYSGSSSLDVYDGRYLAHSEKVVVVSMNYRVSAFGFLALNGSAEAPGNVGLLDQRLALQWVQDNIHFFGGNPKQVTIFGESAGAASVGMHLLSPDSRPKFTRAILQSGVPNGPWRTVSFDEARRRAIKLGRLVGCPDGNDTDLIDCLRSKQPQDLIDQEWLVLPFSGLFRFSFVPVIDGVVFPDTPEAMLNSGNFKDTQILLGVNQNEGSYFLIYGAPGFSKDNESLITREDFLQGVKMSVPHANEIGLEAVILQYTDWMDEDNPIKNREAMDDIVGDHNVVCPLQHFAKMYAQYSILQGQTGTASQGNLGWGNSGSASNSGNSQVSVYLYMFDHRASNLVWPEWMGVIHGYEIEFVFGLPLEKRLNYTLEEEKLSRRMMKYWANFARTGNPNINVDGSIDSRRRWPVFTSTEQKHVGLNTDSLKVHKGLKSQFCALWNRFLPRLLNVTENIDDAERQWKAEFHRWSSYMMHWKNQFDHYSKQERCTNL
Method: The activities of the diluted residual enzymes were measured by Ellman’s modified method.
Reversibility studies were performed using a modified Ellman’s dilution method to measure the activity of the diluted residual enzyme. The AChE/BuChE (0.5 U/mL), ATCI/BTCI (0.01 M) and DTNB (0.01 M) were diluted with phosphate buffer pH = 7.4. […] At the end of incubation, 20 μL of DTNB solution was added to them. […] All the measured results are expressed as the mean ± SEM of the three independent experiments.

[6] = system: MDCKII-MDR1 cells; experiment: in vitro; type: in vitro ADME; conditions: efflux ratio
Method: (§1) Specifically, MDCKII-MDR1 cells (1 × 10^5 cell/cm^2) were seeded on polyester 12-well Transwell inserts (pore size: […], diameter: 12 mm, apical volume: 0.5 mL, basolateral: volume 1.5 mL) and cultured for 5–7 days to reach full differentiation as per TEER readings > 250 Ω·cm. […] After an incubation time of 2 h, samples were removed from the apical and basolateral side of the monolayer and were stored at −80 °C until further analysis.
(§2) The Papp was calculated according to the following equation (units of cm/s):(1) Papp=Va/area×time×Drugacceptor/Druginitial where “Va” is the volume in the acceptor well, “time” is the total transport time, “area” is the surface area of the membrane, “[Drug]initial” is the initial drug concentration in the AP or BL chamber, and “[Drug]acceptor” is the concentration of the drug in the acceptor chamber.
(§3) The ER was calculated using the following equation:ER = Papp, BL-AP/Papp, AP-BL(2) where “Papp, BL-AP” is the apparent permeability of basal-to-apical transport, and “Papp, AP-BL” is the apparent permeability of apical-to-basal transport.

[7] = system: P-gp (MDR1); experiment: in vitro; type: in vitro ADME; conditions: dog, MDCK-MDR1, MDCKII-MDR1
Method: as §1, §2, §3

[8] = Metal chelation by UV–Vis spectroscopy; type: physicochemical; conditions: 20 μM 4h, 1 equivalent CuCl2, methanol/water 1/1
Method: In the wavelength range of 200–600 nm, the metal chelating ability of compound 4h was analyzed by UV–Vis spectroscopy. Specifically, compound 4h (dissolved in DMSO) solutions were prepared with a mixture of methanol and deionized water (1/1). Stock solutions of cation salts (10 mM) were prepared with deionized water and then in the presence or absence of ZnCl2, CuCl2, AlCl3, FeSO4, MgCl2, and CaCl2 (20 μM, final concentration), respectively, and incubated with 4h (20 μM, final concentration) for 1 h at room temperature. The final volume of the reaction mixture was 2 mL. The UV absorption of the test substance was recorded in a 1 cm quartz cell.

O=C1c2cc(NS(=O)(=O)c3ccccc3F)ccc2-n2c1nc1ccccc1c2=O [4h]
inhibition at 100 µM [1]: 63.2 ± 2.33% | K ([2]; SD, rat, 100 μM): 0.00574 ± 0.00037 min⁻¹ | half-life at 100 μM ([2]; SD rat liver microsomes): 1.8 ± 0.0817 h | COX-2 expression [3]: significantly decreased the expression of COX-2 and iNOS | Cell Viability (% of Control) ([4]; 30 μM): 97.84 ± 1.24 % of control | Cell Viability (% of Control) ([4]; 50 μM): 91.33 ± 1.48 % of control | Reversibility of AChE inhibition ([5]; dilution method): reversible inhibitor | AChE activity after dilution (reversibility) ([5]; final inhibitor 0.1 × IC50 after 100-fold dilution): 87.2 ± 0.92 | AChE activity after dilution (reversibility) ([5]; final inhibitor 1 × IC50 after 100-fold dilution): 72.3 ± 1.03 | ER Papp BL/Papp AP [6]: less than two | Papp A→B at 2 h, 75 μM ([7]; apical-to-basal, 2 h): 18.1 ± 2.7 ×10⁻⁶ cm/s | Papp B→A at 2 h, 75 μM ([7]; basal-to-apical, 2 h): 17.4 ± 2.2 ×10⁻⁶ cm/s | efflux ratio at 2 h, 75 μM ([7]; efflux ratio, read-out: ER Papp BL/Papp AP): 0.96 | Metal chelating ability (UV–Vis) [8]: maximum absorption intensity at 261 nm was markedly reduced; also recorded: can chelate Cu^2+
